O=C(O)/C=C/c1ccccc1Cl
solubility (mole fraction) (in 2-butanone, 272.15 K): 0.00431
solubility (mole fraction) (in 2-butanone, 278.45 K): 0.00535
solubility (mole fraction) (in 2-butanone, 283.35 K): 0.00626
solubility (mole fraction) (in 2-butanone, 288.35 K): 0.00733
solubility (mole fraction) (in 2-butanone, 292.75 K): 0.00837
solubility (mole fraction) (in 2-butanone, 297.75 K): 0.00968
solubility (mole fraction) (in 2-butanone, 302.55 K): 0.0111
solubility (mole fraction) (in 2-butanone, 307.05 K): 0.0126
solubility (mole fraction) (in 2-butanone, 312.35 K): 0.0145
solubility (mole fraction) (in 2-butanone, 317.05 K): 0.0164
solubility (mole fraction) (in 2-butanone, 321.45 K): 0.0183
solubility (mole fraction) (in 2-pentanone, 272.15 K): 0.00424
solubility (mole fraction) (in 2-pentanone, 278.45 K): 0.00526
solubility (mole fraction) (in 2-pentanone, 283.35 K): 0.00618
solubility (mole fraction) (in 2-pentanone, 288.35 K): 0.00723
solubility (mole fraction) (in 2-pentanone, 292.75 K): 0.00827
solubility (mole fraction) (in 2-pentanone, 297.75 K): 0.0096
solubility (mole fraction) (in 2-pentanone, 302.55 K): 0.011
solubility (mole fraction) (in 2-pentanone, 307.05 K): 0.0125
solubility (mole fraction) (in 2-pentanone, 312.35 K): 0.0144
solubility (mole fraction) (in 2-pentanone, 317.05 K): 0.0163
solubility (mole fraction) (in 2-pentanone, 321.45 K): 0.0182
solubility (mole fraction) (in acetone, 272.15 K): 0.00376
solubility (mole fraction) (in acetone, 278.45 K): 0.00474
solubility (mole fraction) (in acetone, 283.35 K): 0.00563
solubility (mole fraction) (in acetone, 288.35 K): 0.00668
solubility (mole fraction) (in acetone, 292.75 K): 0.00771
solubility (mole fraction) (in acetone, 297.75 K): 0.00907
solubility (mole fraction) (in acetone, 302.55 K): 0.0105
solubility (mole fraction) (in acetone, 307.05 K): 0.012
solubility (mole fraction) (in acetone, 312.35 K): 0.014
solubility (mole fraction) (in acetone, 317.05 K): 0.016
solubility (mole fraction) (in acetone, 321.45 K): 0.0181
solubility (mole fraction) (in acetonitrile, 272.15 K): 0.000253
solubility (mole fraction) (in acetonitrile, 278.45 K): 0.000362
solubility (mole fraction) (in acetonitrile, 283.35 K): 0.000474
solubility (mole fraction) (in acetonitrile, 288.35 K): 0.000617
solubility (mole fraction) (in acetonitrile, 292.75 K): 0.000773
solubility (mole fraction) (in acetonitrile, 297.75 K): 0.000994
solubility (mole fraction) (in acetonitrile, 302.55 K): 0.00125
solubility (mole fraction) (in acetonitrile, 307.05 K): 0.00154
solubility (mole fraction) (in acetonitrile, 312.35 K): 0.00195
solubility (mole fraction) (in acetonitrile, 317.05 K): 0.0024
solubility (mole fraction) (in acetonitrile, 321.45 K): 0.00289
solubility (mole fraction) (in ethanol, 272.15 K): 0.00229
solubility (mole fraction) (in ethanol, 278.45 K): 0.00295
solubility (mole fraction) (in ethanol, 283.45 K): 0.0036
solubility (mole fraction) (in ethanol, 288.35 K): 0.00431
solubility (mole fraction) (in ethanol, 292.85 K): 0.00508
solubility (mole fraction) (in ethanol, 298.15 K): 0.00614
solubility (mole fraction) (in ethanol, 302.95 K): 0.00722
solubility (mole fraction) (in ethanol, 307.35 K): 0.00833
solubility (mole fraction) (in ethanol, 312.05 K): 0.00969
solubility (mole fraction) (in ethanol, 316.55 K): 0.0112
solubility (mole fraction) (in ethanol, 321.55 K): 0.013
solubility (mole fraction) (in ethyl acetate, 272.15 K): 0.00231
solubility (mole fraction) (in ethyl acetate, 278.45 K): 0.00294
solubility (mole fraction) (in ethyl acetate, 283.35 K): 0.00351
solubility (mole fraction) (in ethyl acetate, 288.35 K): 0.00417
solubility (mole fraction) (in ethyl acetate, 292.75 K): 0.00484
solubility (mole fraction) (in ethyl acetate, 297.75 K): 0.00571
solubility (mole fraction) (in ethyl acetate, 302.55 K): 0.00665
solubility (mole fraction) (in ethyl acetate, 307.05 K): 0.00764
solubility (mole fraction) (in ethyl acetate, 312.35 K): 0.00894
solubility (mole fraction) (in ethyl acetate, 317.05 K): 0.0102
solubility (mole fraction) (in ethyl acetate, 321.45 K): 0.0116
solubility (mole fraction) (in ethyl formate, 272.15 K): 0.000925
solubility (mole fraction) (in ethyl formate, 278.45 K): 0.00124
solubility (mole fraction) (in ethyl formate, 283.35 K): 0.00155
solubility (mole fraction) (in ethyl formate, 288.35 K): 0.00193
solubility (mole fraction) (in ethyl formate, 292.75 K): 0.00232
solubility (mole fraction) (in ethyl formate, 297.75 K): 0.00285
solubility (mole fraction) (in ethyl formate, 302.55 K): 0.00345
solubility (mole fraction) (in ethyl formate, 307.05 K): 0.0041
solubility (mole fraction) (in ethyl formate, 312.35 K): 0.00497
solubility (mole fraction) (in ethyl formate, 317.05 K): 0.0059
solubility (mole fraction) (in ethyl formate, 321.45 K): 0.00688
solubility (mole fraction) (in isobutanol, 272.15 K): 0.0013
solubility (mole fraction) (in isobutanol, 278.45 K): 0.00167
solubility (mole fraction) (in isobutanol, 283.45 K): 0.00211
solubility (mole fraction) (in isobutanol, 288.35 K): 0.00266
solubility (mole fraction) (in isobutanol, 292.85 K): 0.00324
solubility (mole fraction) (in isobutanol, 298.15 K): 0.00403
solubility (mole fraction) (in isobutanol, 302.95 K): 0.00489
solubility (mole fraction) (in isobutanol, 307.35 K): 0.00591
solubility (mole fraction) (in isobutanol, 312.05 K): 0.00724
solubility (mole fraction) (in isobutanol, 316.55 K): 0.00855
solubility (mole fraction) (in isobutanol, 321.55 K): 0.0106
solubility (mole fraction) (in isopentanol, 272.15 K): 0.00208
solubility (mole fraction) (in isopentanol, 278.45 K): 0.00259
solubility (mole fraction) (in isopentanol, 283.45 K): 0.00322
solubility (mole fraction) (in isopentanol, 288.35 K): 0.00396
solubility (mole fraction) (in isopentanol, 292.85 K): 0.00475
solubility (mole fraction) (in isopentanol, 298.15 K): 0.0058
solubility (mole fraction) (in isopentanol, 302.95 K): 0.00691
solubility (mole fraction) (in isopentanol, 307.35 K): 0.00821
solubility (mole fraction) (in isopentanol, 312.05 K): 0.00988
solubility (mole fraction) (in isopentanol, 316.55 K): 0.0115
solubility (mole fraction) (in isopentanol, 321.55 K): 0.014
solubility (mole fraction) (in isopropanol, 272.15 K): 0.00181
solubility (mole fraction) (in isopropanol, 278.45 K): 0.00245
solubility (mole fraction) (in isopropanol, 283.45 K): 0.00309
solubility (mole fraction) (in isopropanol, 288.35 K): 0.00385
solubility (mole fraction) (in isopropanol, 292.85 K): 0.00468
solubility (mole fraction) (in isopropanol, 298.15 K): 0.00585
solubility (mole fraction) (in isopropanol, 302.95 K): 0.00712
solubility (mole fraction) (in isopropanol, 307.35 K): 0.00848
solubility (mole fraction) (in isopropanol, 312.05 K): 0.0101
solubility (mole fraction) (in isopropanol, 316.55 K): 0.012
solubility (mole fraction) (in isopropanol, 321.55 K): 0.0144
solubility (mole fraction) (in methanol, 272.15 K): 0.00174
solubility (mole fraction) (in methanol, 278.45 K): 0.00224
solubility (mole fraction) (in methanol, 283.45 K): 0.00273
solubility (mole fraction) (in methanol, 288.35 K): 0.00328
solubility (mole fraction) (in methanol, 292.85 K): 0.00387
solubility (mole fraction) (in methanol, 298.15 K): 0.00465
solubility (mole fraction) (in methanol, 302.95 K): 0.00549
solubility (mole fraction) (in methanol, 307.35 K): 0.0064
solubility (mole fraction) (in methanol, 312.05 K): 0.00739
solubility (mole fraction) (in methanol, 316.55 K): 0.00857
solubility (mole fraction) (in methanol, 321.55 K): 0.01
solubility (mole fraction) (in methyl acetate, 272.15 K): 0.00189
solubility (mole fraction) (in methyl acetate, 278.45 K): 0.00244
solubility (mole fraction) (in methyl acetate, 283.35 K): 0.00296
solubility (mole fraction) (in methyl acetate, 288.35 K): 0.00358
solubility (mole fraction) (in methyl acetate, 292.75 K): 0.00422
solubility (mole fraction) (in methyl acetate, 297.75 K): 0.00505
solubility (mole fraction) (in methyl acetate, 302.55 K): 0.00596
solubility (mole fraction) (in methyl acetate, 307.05 K): 0.00694
solubility (mole fraction) (in methyl acetate, 312.35 K): 0.00823
solubility (mole fraction) (in methyl acetate, 317.05 K): 0.00956
solubility (mole fraction) (in methyl acetate, 321.45 K): 0.0109
solubility (mole fraction) (in n-butanol, 272.15 K): 0.00231
solubility (mole fraction) (in n-butanol, 278.45 K): 0.00288
solubility (mole fraction) (in n-butanol, 283.45 K): 0.00356
solubility (mole fraction) (in n-butanol, 288.35 K): 0.00438
solubility (mole fraction) (in n-butanol, 292.85 K): 0.00522
solubility (mole fraction) (in n-butanol, 298.15 K): 0.00636
solubility (mole fraction) (in n-butanol, 302.95 K): 0.00757
solubility (mole fraction) (in n-butanol, 307.35 K): 0.00895
solubility (mole fraction) (in n-butanol, 312.05 K): 0.0107
solubility (mole fraction) (in n-butanol, 316.55 K): 0.0124
solubility (mole fraction) (in n-butanol, 321.55 K): 0.0151
solubility (mole fraction) (in n-pentanol, 272.15 K): 0.00268
solubility (mole fraction) (in n-pentanol, 278.45 K): 0.0033
solubility (mole fraction) (in n-pentanol, 283.45 K): 0.00404
solubility (mole fraction) (in n-pentanol, 288.35 K): 0.00491
solubility (mole fraction) (in n-pentanol, 292.85 K): 0.00583
solubility (mole fraction) (in n-pentanol, 298.15 K): 0.00704
solubility (mole fraction) (in n-pentanol, 302.95 K): 0.00832
solubility (mole fraction) (in n-pentanol, 307.35 K): 0.00977
solubility (mole fraction) (in n-pentanol, 312.05 K): 0.0116
solubility (mole fraction) (in n-pentanol, 316.55 K): 0.0134
solubility (mole fraction) (in n-pentanol, 321.55 K): 0.0162
solubility (mole fraction) (in n-propanol, 272.15 K): 0.00202
solubility (mole fraction) (in n-propanol, 278.45 K): 0.00267
solubility (mole fraction) (in n-propanol, 283.45 K): 0.00332
solubility (mole fraction) (in n-propanol, 288.35 K): 0.00408
solubility (mole fraction) (in n-propanol, 292.85 K): 0.0049
solubility (mole fraction) (in n-propanol, 298.15 K): 0.00602
solubility (mole fraction) (in n-propanol, 302.95 K): 0.00723
solubility (mole fraction) (in n-propanol, 307.35 K): 0.00848
solubility (mole fraction) (in n-propanol, 312.05 K): 0.01
solubility (mole fraction) (in n-propanol, 316.55 K): 0.0117
solubility (mole fraction) (in n-propanol, 321.55 K): 0.0139
solubility (mole fraction) (in toluene, 272.15 K): 0.000149
solubility (mole fraction) (in toluene, 278.45 K): 0.000225
solubility (mole fraction) (in toluene, 283.35 K): 0.000307
solubility (mole fraction) (in toluene, 288.35 K): 0.000415
solubility (mole fraction) (in toluene, 292.75 K): 0.000538
solubility (mole fraction) (in toluene, 297.75 K): 0.000716
solubility (mole fraction) (in toluene, 302.55 K): 0.000932
solubility (mole fraction) (in toluene, 307.05 K): 0.00119
solubility (mole fraction) (in toluene, 312.35 K): 0.00156
solubility (mole fraction) (in toluene, 317.05 K): 0.00197
solubility (mole fraction) (in toluene, 321.45 K): 0.00246

Reference: BigSolDB 2.1
